Source: patent US20240316051A1, “A PHARMACEUTICAL COMBINATION AND USE THEREOF” (Ascentage Pharma (Suzhou) Co., Ltd., priority 2021, published 2024)

Assays:
Format in all cases: in vivo, mice
[1] = system: H226 (BAP1mut, UHRF1high, TP53WT, CDKN2Adel, FGFRhigh) subcutaneous mesothelioma xenograft; assay: H226 subcutaneous mesothelioma xenograft model (Example 22); details: for RTV @ D 39: mean ± SEM
Procedure: (§1) A subcutaneous xenograft tumor model of human tumor immunodeficient mice was established by cell inoculation: tumor cells in logarithmic growth phase were collected, counted, resuspended in 1×PBS, and the cell suspension concentration was adjusted to 2.5-5×10^7/mL. The tumor cells were inoculated subcutaneously in the right side of immunodeficient mice with a 1 ml syringe ([…]), 5-10×10^6/0.2 mL/mouse. All animal experiments were strictly in accordance with the specifications for the use and management of experimental animals in GenePharma Co., Ltd. and Suzhou Ascentage Pharma Co., Ltd. The calculation of relevant parameters refers to the Chinese NMPA “Guidelines for Non-Clinical Research Techniques of Cytotoxic Anti-tumor Drugs”.
(§2) Animal body weight and tumor size were measured twice weekly during the experiment. The state of the animal and the presence or absence of death were observed every day. The growth of tumor and the effects of treatment on normal behavior of animals were monitored routinely, specifically involving experimental animal activity, feeding and drinking, weight gain or loss, eyes, clothing hair and other abnormalities. The deaths and clinical symptoms observed during the experiment were recorded in the raw data. All operations for administration and measurement of mouse body weight and tumor volume were performed in a clean bench. According to the requirements of the experimental protocol, after the end of the last administration, plasma and tumor tissues were collected, weighed and photographed. The plasma and tumor samples were frozen at −80° C. for ready-to-use.
(§3) Tumor volume (TV) is calculated as: TV=a×b^2/2, wherein a and b represent the length and width of the tumor to be measured, respectively.
(§4) The relative tumor volume (RTV) is calculated as: RTV=Vt/V1, wherein V1 is the tumor volume at the start of grouping and administration, and Vt is the tumor volume measured on the t day after administration.
(§5) The evaluation index of anti-tumor activity is the relative tumor proliferation rate T/C (%), and the calculation formula thereof is: relative tumor proliferation rate T/C (%)=(TRTV/CRTV)×100%, TRTV is the RTV of treatment group, CRTV is the RTV of solvent control group.
(§6) Change of body weight (%)=(measured body weight-body weight at the start of grouping)/body weight at the start of grouping×100%.
(§7) A dose of drug is considered to be severely toxic if the body weight of mouse is reduced by more than 20% or the number of drug-related deaths exceeds 20%.
In this experiment, H226 (BAP1mut, UHRF1high, TP53WT, CDKN2Adel, FGFRhigh) subcutaneous mesothelioma xenograft model was established to evaluate the anti-tumor effect of Compound 73 in combination with Compound C. The dosing regimen was as follows: • Compound C: 50 mg/kg, orally, every other day, for a total of 39 days; • Compound 73: 50 mg/kg, orally, once per day, for a total of 39 days; • Compound 73: 100 mg/kg, orally, once per day, for a total of 39 days.

[2] = system: NCI-H226 (BAP1mut, CDKN2Adel, FGFR high) xenograft; assay: NCI-H226 xenograft model (Examples 18-19); details: Compound 73 50 mg/kg, orally, once per day, 35 days
Procedure: as §1
Animal body weight and tumor size were measured twice weekly during the experiment. The state of the animal and the presence or absence of death were observed every day. The growth of tumor and the effects of treatment on normal behavior of animals were monitored routinely, specifically involving experimental animal activity, feeding and drinking, weight gain or loss, eyes, clothing hair and other abnormalities. The deaths and clinical symptoms observed during the experiment were recorded in the raw data. […] The plasma and tumor samples were frozen at −80° C. for ready-to-use.
as §3
The relative tumor volume (RTV) is calculated as: RTV=Vt/V1, wherein V1 is the tumor volume at the start of grouping and administration, and Vt is the tumor volume measured on the t day after administration. […]
Use of mRECIST (Gao et al., 2015) measured tumor responses included stable disease (SD), partial tumor regression (PR), and complete regression (CR), determined by comparing tumor volume change at day t to its baseline: tumor volume change (%)=(Vt−V1)/V1. […] For each time t, the average of tumor volume changes from t=1 to t was also calculated. […] Body weight of animals were monitored simultaneously. […]

[3] = system: BAP1 mut mesothelioma PDX model; assay: Subcutaneous BAP1 mut mesothelioma PDX model (Example 21); details: Compound 73 100 mg/kg orally once per day, Compound C 50 mg/kg orally every other day, 36 days; alone or combined
Procedure: as §1, §2, §3, §4, §5, §6, §7
In this experiment, subcutaneous BAP1 mut mesothelioma PDX model was established (Lide Biotech) to evaluate the anti-tumor effect of Compound 73 in combination with Compound C. […]

[4] = system: LnCap prostate xenograft; assay: Subcutaneous LnCap prostate xenograft model (Example 25); details: day 17
Procedure: as §1, §2, §3, §4, §5, §7
According to the description by Clarke R., Issues in experimental design and endpoint analysis in the study of experimental cytotoxic agents in vivo in breast cancer and other models [J]. Breast Cancer Research & Treatment, 1997, 46(2-3): 255-278, synergy analysis was evaluated using the following formula: synergy factor=((A/C)×(B/C))/(AB/C); A=RTV value of drug A alone group; B=RTV value of drug B alone group; C=RTV value of the solvent control group, and AB=RTV value of the A and B combination group.
In this experiment, subcutaneous LnCap prostate xenograft model was established to evaluate the anti-tumor effect of Compound 73 in combination with Compound C. The dosing regimen was as follows: • Compound C: 100 mg/kg, orally, every other day, for day 1-day 9; 50 mg/kg, orally, every other day, for day 10-day 28; • Compound 73: 100 mg/kg, orally, once per day, for a total of 28 days;
The dosing regimen of each drug in the dosing regimen for the combination is the same as the dosing regimen for the single drug, for a total of 28 days.

[5] = Compound 73 100 mg/kg orally once per day, alone or combined with Compound C 50 mg/kg every other day
[6] = Compound C 50 mg/kg orally every other day, Compound 73 50 mg/kg orally once per day, alone or combined

SMILES: CC(C)N1Cc2cc(C(F)(F)F)ncc2-c2cnc(NCc3c(F)ccc4c3CCO4)n3cnc(c23)C1=O [Compound 73, 12-(((5-fluoro-2,3-dihydrobenzofuran-4-yl)methyl)amino)-4-isopropyl-7-(trifluoromethyl)-4,5-dihydro-3H-2,4,8,11,12a-pentaazabenzo[4,5]cycloocta[1,2,3-cd]inden-3-one]
- T/C (%) @ D 39 [1, 5]: 59.73%
- RTV @ D 39 [1, 5]: 4.76 ± 0.61
- T/C (%) @ D 39 [1, 6]: 67.7%
- RTV @ D 39 [1, 6]: 5.39 ± 0.56
- antitumor activity (in words) ([1]; single agents, 39 days (FIG. 10)): moderate antitumor activity
- T/C (%) [2]: 48.6%
- tumor response (mRECIST) [2]: all the mice achieving stable disease (SD)
- RTV @ D 36 [3]: 5.43
- T/C (%) @ D 36 [3]: 37.22%
- RTV@ D 17 ([4]; LnCap xenograft, Compound 73 100 mg/kg orally once per day, Compound C 100 mg/kg/50 mg/kg orally every other day): 4.09 ± 0.75
- T/C(%) @ D 17 ([4]; LnCap xenograft, Compound 73 100 mg/kg, Compound C 100 mg/kg/50 mg/kg): 91.30%
- T/C value ([4]; Compound C 100 mg/kg every other day day 1-9 then 50 mg/kg day 10-28, Compound 73 100 mg/kg once per day, orally, alone or combined): 91.30%
